Test results taken from patent US6946480B2, “Glutaminyl based DPIV inhibitors” (priority 2002, dated 2005).

What was measured:
[1] = tested on: diabetic Zucker rats; test: Dose escalation study with oral glucose tolerance test in fatty Zucker rats; assay type: in vivo, Zucker rats (fa/fa); conditions: for effect on glucose tolerance (OGTT): 2 g/kg glucose
Protocol: N=30 male Zucker rats (fa/fa), mean age 11 weeks (5-12 weeks), mean body weight 350 g (150-400 g), were purchased from Charles River (Sulzfeld, Germany). After delivery they were kept for >12 weeks until nearly all fatty Zucker rats had the characteristics of manifest diabetes mellitus. A group of N=8 animals were recruited for testing three escalating doses of glutaminyl pyrrolidine vs. placebo (saline).
Animals were single-caged under standardized conditions with controlled temperature (22±2° C.) on a 12/12 hours light/dark cycle (light on at 06:00 AM). Sterile standard pelleted chow (ssniff® Soest, Germany) and tap water acidified with HCl were allowed ad libitum.
Fatty Zucker rats of 24-31 weeks (mean: 25 weeks) age, adapted to the housing conditions, were well prepared for the study.
Catheters were implanted into the carotid artery of fatty Zucker rats under general anaesthesia (i.p. injection of 0.25 ml/kg b.w. Rompune® [2%], BayerVital, Germany and 0.5 ml/kg b.w. Ketamin 10, Atarost GmbH & Co., Twistringen, Germany). The animals were allowed to recover for one week. The catheters were flushed with heparin-saline (100 IU/ml) three times per week.
Placebo (1 ml saline, 0.154 mol/l) or escalating doses of glutaminyl pyrrolidine (5, 15 and 50 mg/kg b.w.) were administered to groups of N=8 fatty Zucker rats. 375 mg of glutaminyl pyrrolidine were dissolved in 1000 μl DMSO (E. Merck, Darmstadt; Germany [Dimethyl sulfoxide p.a.]). 10 ml saline were added and 1 ml aliquots, each containing 34.09 mg of glutaminyl pyrrolidine, were stored at −20° C. For preparation of the test substance, dose dependent aliquots were diluted in saline.
After overnight fasting, placebo or test substance were administered to the fatty Zucker rats via feeding tube orally (15 G, 75 mm; Fine Science Tools, Heidelberg, Germany) at −10 min An oral glucose tolerance test (OGTT) with 2 g/kg b.w. glucose (40% solution, B. Braun Melsungen, Melsungen, Germany) was administered at ±0 min via a second feeding tube. Venous blood samples from the tail veins were collected at −30 min, −15 min, ±0 min and at 5, 10, 15, 20, 30, 40, 60, 90 and 120 min into 20 μl glass capillaries, which were placed in standard tubes filled with 1 ml solution for blood glucose measurement.
Glucose levels were measured using the glucose oxidase procedure (Super G Glucose analyzer; Dr. Müller Gerätebau, Freital, Germany).
Statistical evaluations and graphics were performed with PRISM® 3.02 (GraphPad Software, Inc.). All parameters were analysed in a descriptive manner including mean and SD.
N=30 male Zucker rats (fa/fa), mean age 11 weeks (5-12 weeks), mean body weight 350 g (150-400 g), were purchased from Charles River (Sulzfeld, Germany). […]

[2] = target: T1, Dipeptidyl Peptidase I (DP I, Cathepsin C) (Rattus norvegicus, UniProt P80067); test: Cross reacting enzymes - dipeptidyl peptidase I; assay type: biochemical; conditions: concentration range 1*10^−5 M-1*10^−7 M
T1 construct: purchased Qiagen GmbH, Hilden, Germany
T1 sequence (P80067 25-134 limits assumed): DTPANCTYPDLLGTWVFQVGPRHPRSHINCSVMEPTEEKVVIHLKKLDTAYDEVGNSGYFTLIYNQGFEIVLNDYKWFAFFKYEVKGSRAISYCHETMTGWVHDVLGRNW
T1 sequence (P80067 230-393 limits assumed): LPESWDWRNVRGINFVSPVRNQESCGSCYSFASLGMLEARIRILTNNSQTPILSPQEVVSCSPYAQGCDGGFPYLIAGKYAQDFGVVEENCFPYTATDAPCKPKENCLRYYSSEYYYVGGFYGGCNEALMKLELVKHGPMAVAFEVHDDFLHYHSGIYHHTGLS
T1 sequence (P80067 394-462 limits assumed): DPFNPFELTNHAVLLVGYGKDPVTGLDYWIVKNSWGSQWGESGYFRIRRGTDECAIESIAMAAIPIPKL
Protocol: Glutaminyl pyrrolidine or glutaminyl thiazolidine were tested for their cross reacting potency against dipeptidyl peptidase I, prolyl oligopeptidase and prolidase.
DP I or cathepsin C is a lysosomal cysteine protease which cleaves off dipeptides from the N-terminus of their substrates (Gutman, H. R. & Fruton, J. S., 1948, J. Biol: Chem., 174, 851-858) . It is classified as a cysteine protease.
The enzyme used was purchased from Qiagen (Qiagen GmbH, Hilden, Germany). In order to get a fully active enzyme, the enzyme was diluted 1000fold in MES buffer pH5,6 (40 mM MES, 4 mM DTT, 4 mM KCl, 2 mM EDTA, 0.015% Brij) and pre-incubated for 30 min at 30° C.
50 μl glutaminyl pyrrolidine or glutaminyl thiazolidine in a concentration range of 1*10^−5 M-1*10^−7 M were admixed with 110 μl buffer-enzyme-mixture. The assay mixture was pre-incubated at 30° C. for 15 min After pre-incubation, 100 μl histidylseryl-β-nitroaniline (2*10^−5 M) were added and measurement of yellow color development due to β-nitroaniline release was performed at 30° C. and […] for 10 min, using a plate reader (HTS7000 plus, Applied Biosystems, Weiterstadt, Germany).
The IC50-values were calculated using Graphit 4.0.15 (Erithacus Software, Ltd., UK).

- inhibition of DP I enzyme activity [2]: no inhibition
SMILES: NC(=O)CC[C@H](N)C(=O)N1CCCC1 [glutaminyl pyrrolidine]
- effect on glucose tolerance (OGTT) ([1]; 5 mg/kg b.w. oral): limited improvement of glucose tolerance
- effect on blood glucose levels over escalating doses (OGTT) ([1]; 5 mg/kg, 15 mg/kg and 50 mg/kg b.w. oral): dose dependent lowering of elevated blood glucose levels
- effect on glucose tolerance (OGTT) ([1]; 15 mg/kg b.w. oral): Significant lowering of elevated blood glucose levels
- effect on glucose tolerance (OGTT) ([1]; 50 mg/kg b.w. oral): Significant lowering of elevated blood glucose levels
